Values of other authors as cited in patent US5272138A, “Naturally occurring gangliosides containing de-N-acetyl-sialic acid and their applications as modifiers of cell physiology” (The Biomembrane Institute, priority 1990, dated 1993).

Conditions: compared with lysolecithin, Taketomi and Kawamura 1970

Question: For `CCCCCCCCCCCCCC=CC(O)C(N)COC1OC(CO)C(OC2OC(CO)C(O)C(OC3(C(=O)O)CC(O)C(N)C(C(O)C(O)CO)O3)C2O)C(O)C1O` (stereo not shown), which hemolytic activity is on record?
Answer: The hemolytic activity was “twice that of lysolecithin”.
